{
  "source": "patent US4738969A",
  "about": "“Substituted aminopyridones and aminoquinolones having histamine H2 -receptor blocking activity” (Smith Kline & French Laboratories Limited, priority 1983, dated 1988)",
  "key": {"histamine H2 -receptors [1]": {"system": "histamine H2 -receptors", "test": "inhibition of histamine-stimulated secretion of gastric acid from the lumen-perfused stomachs of rats anaesthetised with urethane (lumen-perfused rat test)", "format": "in vivo", "conditions": "times more active than the reference compound", "from_the_text": "These are actions of histamine which, according to Ash and Schild, Brit. J. Pharmac. Chemother. 27 247 (1966), are not mediated by histamine H1 -receptors.\n(§1) The measurement of inhibition of histamine-stimulated secretion of gastric acid from the lumen-perfused stomachs of rats anaesthetised with urethane, and the measurement of inhibition of histamine-induced tachycardia in the isolated guinea pig right atrium, are detailed in U.S. Pat. No. 4,385,058."}, "histamine H2 -receptors [2]": {"system": "histamine H2 -receptors", "test": "inhibition of histamine-induced tachycardia in the isolated guinea pig right atrium (guinea pig atrium test)", "format": "cell-based", "conditions": "times more active than the reference compound", "from_the_text": "as §1"}, "histamine H2 -receptors [3]": {"system": "histamine H2 -receptors", "test": "inhibition of histamine-stimulated acid secretion in the Heidenhain Pouch Dog", "format": "in vivo", "conditions": "intravenous administration, dose levels adjusted to produce similar peak responses"}},
  "data": [
    {"smiles": "O=c1cc[nH]c(NCCCOc2cccc(CN3CCCCC3)c2)c1", "note": "[Example 1, 2-[3-[3-(Piperidinomethyl)phenoxy]propylaminc]-pyrid-4-one]", "values": [
      {"measurement": "activity relative to 2-[2-(5-methylimidazol-4-ylmethylthio)ethylamino]pyrid-4-one (Example 16 of U.S. Pat. No. 3,932,644), lumen-perfused rat test", "setting": "histamine H2 -receptors [1]", "result": "over 100 times"},
      {"measurement": "activity relative to 2-[2-(5-methylimidazol-4-ylmethylthio)ethylamino]pyrid-4-one (Example 16 of U.S. Pat. No. 3,932,644), guinea pig atrium test", "setting": "histamine H2 -receptors [2]", "result": "over 100 times"},
      {"measurement": "duration of activity compared with cimetidine", "setting": "histamine H2 -receptors [3]", "result": "longer duration of activity than cimetidine"}
    ]}
  ]
}
